By IC50 is commonly meant the point on the concentration scale where inhibition reaches its midpoint.

The source of these data is patent US8946266B2, “Substituted triazole and imidazole derivatives as gamma secretase modulators” (Janssen Pharmaceuticals, Inc., priority 2009, dated 2015).

The test system of assay [1] is Aβ42. Kind of assay: γ-secretase-modulating activity, Method 2: Aβ42 Alphalisa in supernatant of SKNBE2 cells carrying APP 695-wild type (Table 3b). Conditions: overnight. Format: cell-based. The procedure, abridged:
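Aβ42 in the supernatant was quantified by AlphaLISA sandwich (JRF/cAβ42/26 with JRF/AβN/25). Cells were wild-type APP695 SKNBE2, exposed to compound overnight at 37° C., 5% CO2. Data were normalised to untreated maximum and fitted with a four-parameter curve to give IC50.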
Background: Alpha assays give light when donor and acceptor beads are brought close together.

Assay [2] deals with Aβtotal. Kind of assay: γ-secretase-modulating activity, Method 2: Aβtotal Alphalisa in supernatant of SKNBE2 cells carrying APP 695-wild type (Table 3b). In kind it is cell-based. Conditions: overnight, read-out: IC50 Aβtot. Summed up:
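Secreted Aβtotal was quantified by AlphaLISA pairing an N-terminal antibody (JRF/AβN/25) with biotinylated mid-region 4G8. Wild-type APP 695 SKNBE2 cells received serially varied compound overnight at 37 °C; IC50 came from a 4-parameter nonlinear regression of percent of control against log dose.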

Assay [3] relates to Aβtotal. Kind of assay: In vivo efficacy, Method 1: brain soluble Aβtotal lowering 4 h after a single oral dose, ELISA (Table 4a). Conditions: dose 30 mg/kg oral dosing. Further details: species or system mouse. The text has this:
(§1) To determine whether acute administration of an Aβ42 lowering agent would reduce Aβ42 levels in vivo, non-transgenic rodents, e.g. mice or rats were used. Alternatively, two to three month old Tg2576 mice expressing APP695 containing the “Swedish” variant can be used or a transgenic mouse model developed by Dr. Fred Van Leuven (K.U. Leuven, Belgium) and co-workers, with neuron-specific expression of a clinical mutant of the human amyloid precursor protein [V717I] (Moechars et al., 1999 J. Biol. Chem. 274, 6483). Young transgenic mice have high levels of Aβ in the brain but no detectable Aβ deposition. At approximately 6-8 months of age, the transgenic mice start to display spontaneous, progressive accumulation of β-amyloid (Aβ) in the brain, eventually resulting in amyloid plaques within the subiculum, hippocampus and cortex. Animals treated with the Aβ42 lowering agent were examined and compared to those untreated or treated with vehicle and brain levels of soluble Aβ42 and total Aβ would be quantitated by standard techniques, for example, using ELISA. Treatment periods varied from hours (h) to days and were adjusted based on the results of the Aβ42 lowering once a time course of onset of effect could be established.
(§2) A typical protocol for measuring Aβ42 lowering in vivo is shown but it is only one of many variations that could be used to optimize the levels of detectable Aβ. For example, Aβ42 lowering compounds were formulated in 20% of Captisol® (a sulfobutyl ether of β-cyclodextrin) in water or 20% hydroxypropyl cyclodextrin. The Aβ42 lowering agents were administered as a single oral dose or by any acceptable route of administration to overnight fasted animals. After 4 h, the animals were sacrificed and Aβ42 levels were analysed.
(§3) Blood was collected by decapitation and exsanguinations in EDTA-treated collection tubes. Blood was centrifuged at 1900 g for 10 minutes (min) at 4° C. and the plasma recovered and flash frozen for later analysis. The brain was removed from the cranium and hindbrain. The cerebellum was removed and the left and right hemisphere were separated. The left hemisphere was stored at −18° C. for quantitative analysis of test compound levels. The right hemisphere was rinsed with phosphate-buffered saline (PBS) buffer and immediately frozen on dry ice and stored at −80° C. until homogenization for biochemical assays.
(§4) Mouse brains were resuspended in 10 volumes of 0.4% DEA (diethylamine)/50 mM NaCl pH 10 (for non-transgenic animals) or 0.1% 3-[(3-cholamidopropyl)-dimethyl-ammonio]-1-propanesulfonate (CHAPS) in tris buffered saline (TBS) (for transgenic animals) containing protease inhibitors (Roche-11873580001 or 04693159001) per gram of tissue, e.g. for 0.158 g brain, add 1.58 ml of 0.4% DEA. All samples were sonicated for 30 seconds on ice at 20% power output (pulse mode). Homogenates were centrifuged at 221.300×g for 50 min. The resulting high speed supernatants were then transferred to fresh tubes and were optionally further purified before the next step. A portion of the supernatant was neutralized with 10% 0.5 M Tris-HCl and this was used to quantify Aβtotal.
To quantify the amount of Aβ42 in the soluble fraction of the brain homogenates, commercially available Enzyme-Linked-Immunosorbent-Assay (ELISA) kits were used (e.g. Innotest® β-Amyloid(1-42), Innogenetics N.V., Ghent, Belgium). The Aβ42 ELISA was performed using the plate provided with the kit only. Briefly, the standards (a dilution of synthetic Aβ1-42) were prepared in 1.5 ml Eppendorf tube in Ultraculture, with final concentrations ranging from 25000 to 1.5 pg/ml. Samples, standards and blanks (60 μl) were added to the anti-Aβ42-coated plate (the capture antibody selectively recognizes the C-terminal end of the antigen). The plate was allowed to incubate overnight at 4° C. in order to allow formation of the antibody-amyloid complex. […]
A general note: ELISA stands for enzyme-linked immunosorbent assay.

In assay [4] the test system is Aβ42. The assay can be described thus: In vivo efficacy, Method 1: brain soluble Aβ42 lowering 4 h after a single oral dose, ELISA (Table 4a). Conditions: dose 30 mg/kg oral dosing. Also on record: species or system mouse.
Text: as §1, §2, §3, §4
The obtained supernatants were purified with Water Oasis HLB reverse phase columns (Waters Corp., Milford, Mass.) to remove non-specific immunoreactive material from the brain lysates prior subsequent Aβ detection. Using a vacuum manifold, all solutions were passed through the columns at a rate of approximately 1 ml per min, so the vacuum pressure was adjusted accordingly throughout the procedure. Columns were preconditioned with 1 ml of 100% MeOH, before equilibration with 1 ml of H2O, Non-neutralized brain lysates were loaded onto the columns. The loaded samples were then washed twice with the first wash performed with 1 ml of 5% MeOH, and the second wash with 1 ml of 30% MeOH. Finally, the Aβ was eluted from the columns and into 100×30 mm glass tubes, with a solution of 90% MeOH with 2% NH4OH. […]

SMILES strings stand for the structures. Read-outs that look alike come from different tables or passages of the source. Bounds are passed on as bounds.

Turning to `COc1cc(-c2nc(C(C)C)n(-c3cccc(C(F)(F)F)c3)n2)ccc1-n1cnc(C)c1.Cl` [Compound 32], the IC50 in the assay with Aβ42 [1] was 0.191 µM; with Aβtotal [2], 6.76 µM. In addition, the “Aβtotal (% Ctrl) _Mean” value in the assay on Aβtotal [3] was determined as 2 % Ctrl. For the same molecule, in the assay with Aβ42 [4], the “Aβ42 (% Ctrl) _Mean” value was 6 % Ctrl.

Consider `COc1cc(-c2nc(-c3cccc(C(F)(F)F)c3)n(C(C)C)n2)ccc1-n1cnc(C)c1` [Compound 39], for which the IC50 in the assay on Aβ42 [1] (Homo sapiens) is 0.105 µM; in the assay with Aβtotal [2] (Homo sapiens), 7.94 µM. In addition, in the assay on Aβtotal [3], the “Aβtotal (% Ctrl) _Mean” value is listed as 0 % Ctrl. Besides, the “Aβ42 (% Ctrl) _Mean” value in the assay on Aβ42 [4] is listed as 17 % Ctrl.

As for `COc1nc(-c2nc(-c3cccc(C(F)(F)F)c3)n(C(C)C)n2)ccc1-n1cnc(C)c1.Cl.Cl` [Compound 68], the half-inhibitory concentration (IC50) in the assay with Aβ42 [1] is 0.135 µM; in the assay with Aβtotal [2], above 10 µM. In the assay on Aβtotal [3], the “Aβtotal (% Ctrl) _Mean” value is given as −3 % Ctrl. Also, in the assay on Aβ42 [4], the “Aβ42 (% Ctrl) _Mean” value turned out to be 29 % Ctrl.
